Columns and labels:
RORγ-LBD = target: T1, RORγ-LBD (Homo sapiens, UniProt P51449); assay: RORγ-Ligand Binding Domain (LBD) TR-FRET Assay; format: biochemical;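 on TR-FRET Assay Max Response: 665/615 nm ratio relative to signal without ursolic acid or compound set at 100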
T1 construct: made in house; host or cells: SF9 cells (baculovirus)
T1 sequence (P51449 269-508 limits assumed): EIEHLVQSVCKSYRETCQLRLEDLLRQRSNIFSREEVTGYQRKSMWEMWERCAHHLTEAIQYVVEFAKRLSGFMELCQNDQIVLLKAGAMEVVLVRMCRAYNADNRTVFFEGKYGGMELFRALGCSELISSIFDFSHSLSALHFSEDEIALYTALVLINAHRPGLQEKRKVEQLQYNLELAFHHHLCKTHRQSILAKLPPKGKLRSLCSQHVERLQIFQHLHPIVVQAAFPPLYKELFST
In short: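 His-tagged RORγ-LBD from SF9 baculovirus lysate, ~3 nM final, in 50 mM Tris pH 7.0, 50 mM KCl, 1 mM EDTA, 0.1 mM DTT, 0.01% BSA. Biotinylated SRC1 LXXLL peptide at 200 nM final with 2 μM ursolic acid; TR-FRET read-out, 1% DMSO final.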

Gal4-RORγ-LBD = target: T2, Gal4-RORγ-LBD (Homo sapiens, UniProt P51449); assay: Gal4-RORγ Luciferase Reporter Assay in HEK-293T Cells; format: cell-based; settings: HEK-293 cells
T2 construct: expressed in transfected cells; host or cells: HEK-293 cells (pcDNA3.1neo plasmid)
T2 sequence (P51449 269-508 limits assumed): T1 sequence (P51449 269-508 limits assumed)
In short: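 HEK-293 cells were transiently co-transfected with Gal4-RORγ-LBD and pGL4.31 Gal4-luciferase, with ursolic acid added at 2 μM final. Compounds were incubated overnight at 37° C. in 0.2% DMSO and luminescence read with One-Glo. Max Response is the upper plateau of a 4-parameter logistic fit, with signal lacking ursolic acid or compound set to 100.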

[1] = luciferase reporter, with 2 μM ursolic acid

| EC50 (RORγ-LBD) | EC50 (Gal4-RORγ-LBD; [1]) | EC50 (Gal4-RORγ-LBD; 2 μM ursolic acid) | Compound | TR-FRET Assay Max Response (RORγ-LBD) | Gal4-RORγ Assay Max Response (Gal4-RORγ-LBD; [1]) | Gal4-RORγ Assay Max Response (Gal4-RORγ-LBD; 2 μM ursolic acid) |
| --- | --- | --- | --- | --- | --- | --- |
| < 500 nM | < 500 nM |  | COc1ccc(-c2ccc3c(c2)N(S(=O)(=O)c2cccc(C(F)(F)F)c2)C[C@H](CCC(=O)O)O3)cc1Cl [Compound 2AN, (S)-3-(6-(3-chloro-4-methoxyphenyl)-4-((3-(trifluoromethyl)phenyl)-sulfonyl)-3,4-dihydro-2H-benzo[b][1,4]oxazin-2-yl)propanoic acid] | **** (The symbol “****” indicates a value greater than 200) | ** (The symbol “**” indicates a value in the range of greater than 90 to 150) |  |
| < 500 nM |  | < 500 nM | Cc1cc(Cl)cc(-c2ccc3c(c2)N(S(=O)(=O)c2cccc(C(F)(F)F)c2)C[C@H](CC(C)(C)C(=O)O)O3)c1 [Compound 32BB, (S)-3-(6-(3-chloro-5-methyl-phenyl)-4-((3-(trifluoromethyl)-phenyl)sulfonyl)-3,4-dihydro-2H-benzo[b][1,4]oxazin-2-yl)-2,2-dimethylpropanoic acid] | * (The symbol “*” indicates a value in the range of 25 to 90) |  | ** (The symbol “**” indicates a value in the range of greater than 90 to 150) |
| < 500 nM | < 500 nM |  | O=c1[nH]nc(CC[C@H]2CN(S(=O)(=O)c3cccc(C(F)(F)F)c3)c3cc(-c4cncc(C(F)(F)F)c4)ccc3O2)o1 [Compound 28C, (S)-5-(2-(4-((3-(trifluoromethyl)-phenyl)sulfonyl)-6-(5-(trifluoromethyl)pyridin-3-yl)-3,4-dihydro-2H-benzo[b][1,4]oxazin-2-yl)ethyl)-1,3,4-oxadiazol-2(3H)-one] | **** (The symbol “****” indicates a value greater than 200) | * (The symbol “*” indicates a value in the range of 25 to 90) |  |

The next lines start with the compound.

| Compound | EC50 (RORγ-LBD) | EC50 (Gal4-RORγ-LBD; [1]) | EC50 (Gal4-RORγ-LBD; 2 μM ursolic acid) | TR-FRET Assay Max Response (RORγ-LBD) | Gal4-RORγ Assay Max Response (Gal4-RORγ-LBD; [1]) | Gal4-RORγ Assay Max Response (Gal4-RORγ-LBD; 2 μM ursolic acid) |
| --- | --- | --- | --- | --- | --- | --- |
| CC(=O)OCC(=O)NC[C@H]1CN(S(=O)(=O)c2cccc(C(F)(F)F)c2)c2cc(-c3cc(F)ccc3F)ccc2O1 [Compound 30AY, (S)-2-(((6-(2,5-difluorophenyl)-4-((3-(trifluoromethyl)phenyl)-sulfonyl)-3,4-dihydro-2H-benzo[b][1,4]oxazin-2-yl)methyl)amino)-2-oxoethyl acetate] | < 500 nM | < 500 nM |  | *** (The symbol “***” indicates a value in the range of greater than 150 to 200) | ** (The symbol “**” indicates a value in the range of greater than 90 to 150) |  |
| COc1cc(S(=O)(=O)N2C[C@H](CCC(C)(C)C(=O)O)Oc3ccc(-c4cccc(C(F)(F)F)n4)cc32)ccc1F [Compound 32AJ, (S)-4-(4-((4-fluoro-3-methoxy-phenyl)sulfonyl)-6-(6-(trifluoro-methyl)pyridin-2-yl)-3,4-dihydro-2H-benzo[b][1,4]oxazin-2-yl)-2,2-dimethylbutanoic acid] | < 500 nM |  | < 500 nM | ** (The symbol “**” indicates a value in the range of greater than 90 to 150) |  | ** (The symbol “**” indicates a value in the range of greater than 90 to 150) |
| CC(C)(C)C(=O)NC[C@H]1CN(S(=O)(=O)c2cccc(C(F)(F)F)c2)c2cc(-c3cc(F)ccc3F)ccc2O1 [Compound 30AO, (S)-N-((6-(2,5-difluorophenyl)-4-((3-(trifluoromethyl)phenyl)-sulfonyl)-3,4-dihydro-2H-benzo[b][1,4]oxazin-2-yl)methyl)pivalamide] | < 500 nM | < 500 nM |  | **** (The symbol “****” indicates a value greater than 200) | * (The symbol “*” indicates a value in the range of 25 to 90) |  |
